Experimental data published in the supplement of paper PMC8967900.

Experiments:
Test in all cases: selective drug sensitivity score (sDSS, relative to normal bone marrow) (sDSS (score)); higher = more potent and effective on the cell line relative to normal bone marrow cells
Settings in all cases: 72 h
CCRF-CEM = tested on: CCRF-CEM
P30-OHKUBO = tested on: P30-OHKUBO
PF-382 = tested on: PF-382
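Note: ALL cell lines in 384-well plates, five doses spanning 10,000-fold, each plate scaled between vehicle and 100 µmol/L benzalkonium chloride controls, sDSS an adapted area-under-curve metric.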

Row | SMILES | selective drug sensitivity score (CCRF-CEM) | selective drug sensitivity score (P30-OHKUBO) | selective drug sensitivity score (PF-382)
1 | Cc1ccc(NC(=O)c2ccc(CN3CCN(C)CC3)cc2)cc1Nc1nc(-c2cccnc2)cs1 [Masitinib] (top concentration 10000 nM) | 2.42 | 1.22 | 1.42
2 | CNC(=O)c1ccccc1Sc1ccc2c(/C=C/c3ccccn3)n[nH]c2c1 [Axitinib] (top concentration 10000 nM) | 9.26 | 12.2 | 6.96
3 | COc1ccc(-c2nc(N3CCOCC3)c3sc(CN(C)c4ncc(C(=O)NO)cn4)cc3n2)cn1 [Fimepinostat (CUDC-907)] (top concentration 10000 nM) | 6.88 | 8.68 | 2.58
4 | CC(C)C[C@H](NC(=O)[C@H](CCc1ccccc1)NC(=O)CN1CCOCC1)C(=O)N[C@@H](Cc1ccccc1)C(=O)N[C@@H](CC(C)C)C(=O)[C@@]1(C)CO1 [Carfilzomib] (top concentration 1000 nM) | 4.86 | 3.46 | 1.86
5 | CC(=O)c1cnc2ccc(-c3cc(Cl)c(O)c(Cl)c3)nc2c1N[C@H]1CC[C@H](CN(C)C)CC1 [OTS167] (top concentration 1000 nM) | 2.48 | 0.98 | -2.62
6 | CC(C)C[C@@H](C(=O)N[C@H](C(=O)OC1CCCC1)c1ccccc1)[C@H](O)C(=O)NO [Tosedostat] (top concentration 10000 nM) | 4.36 | 4.96 | 5.66
7 | Cc1ccc(NC(=O)c2ccc(CN3CCN(C)CC3)cc2)cc1Nc1nccc(-c2cccnc2)n1 [Imatinib] (top concentration 10000 nM) | -0.44 | 0.06 | -0.24
8 | CC(=O)N(O)CCCCCNC(=O)CCC(=O)N(O)CCCCCNC(=O)CCC(=O)N(O)CCCCCN [Deferoxamine] (top concentration 10000 nM) | 6.86 | 0.76 | 4.66
9 | Cc1cc(Nc2cc(CN3CCOCC3)c3nc(C)c(Cc4ccc(Cl)cc4F)n3n2)n[nH]1 [Gandotinib] (top concentration 10000 nM) | 5.68 | 6.28 | 1.88
10 | CO[C@H]1CC[C@H](N2C(=O)CNc3ncc(-c4ccc(C(C)(C)O)nc4)nc32)CC1 [CC-223] (top concentration 10000 nM) | 4.42 | 3.12 | 1.42
11 | CCC(C)n1ncn(-c2ccc(N3CCN(c4ccc(OCC5COC(Cn6cncn6)(c6ccc(Cl)cc6Cl)O5)cc4)CC3)cc2)c1=O (stereo not given) [Itraconazole] (top concentration 5000 nM) | -1.22 | -2.62 | 0.38
12 | NC(=O)NO [Hydroxyurea] (top concentration 1000000 nM) | 3.96 | 7.66 | 1.26
13 | CCC/C=C/C=C/C(=O)O[C@H]1/C(=C/C(=O)OC)C[C@H]2C[C@H]([C@@H](C)O)OC(=O)C[C@H](O)C[C@@H]3C[C@H](OC(C)=O)C(C)(C)[C@](O)(C[C@@H]4C/C(=C/C(=O)OC)C[C@H](/C=C/C(C)(C)[C@]1(O)O2)O4)O3 [Bryostatin_1] (top concentration 100 nM) | -7.12 | 20.2 | 4.18
14 | CCS(=O)(=O)c1cccc(-c2cc(C(=O)NC3CCN(C)CC3)c(C)c3[nH]c4ncc(C)cc4c23)c1 [TAK-901] (top concentration 1000 nM) | 11.2 | 12.8 | 7.16
15 | Cc1cnc(Nc2ccc(OCCN3CCCC3)cc2)nc1Nc1cccc(S(=O)(=O)NC(C)(C)C)c1 [Fedratinib] (top concentration 10000 nM) | -1.76 | -2.16 | -3.06
16 | CS(=O)(=O)c1ccc(-c2cnc(N)c(C(=O)Nc3ccccc3)n2)cc1 [VE-821] (top concentration 10000 nM) | -0.66 | -0.16 | -0.56
17 | CC[C@@H]1C(=O)N(C)c2cnc(Nc3ccc(C(=O)N[C@H]4CC[C@H](N5CCN(CC6CC6)CC5)CC4)cc3OC)nc2N1C(C)C [Volasertib] (top concentration 1000 nM) | 13.8 | 13.1 | 13.6
18 | CC(C)NC[C@@H](C(=O)N1CCN(c2ncnc3c2[C@H](C)C[C@H]3O)CC1)c1ccc(Cl)cc1 [Ipatasertib] (top concentration 10000 nM) | 10.7 | 1.9 | 4.2
19 | CNC(=O)c1ccccc1Nc1cc(Nc2ccc(N3CCOCC3)cc2OC)ncc1C(F)(F)F [VS-4718] (top concentration 10000 nM) | 2 | 0.4 | -0.3
20 | CC(=O)Nc1ccc(C(=O)Nc2ccccc2N)cc1 [Tacedinaline] (top concentration 1000 nM) | 2.08 | 2.58 | -0.02
21 | O=C(O)c1ccc(-c2c[nH]c3ncc(-c4ccccc4)cc23)cc1C1CCCC1 (top concentration 10000 nM) | 3.66 | 3.36 | -0.34
22 | CNC(=O)c1cc(Oc2ccc(NC(=O)Nc3ccc(Cl)c(C(F)(F)F)c3)c(F)c2)ccn1 [Regorafenib] (top concentration 10000 nM) | 3.74 | 4.04 | 4.34
23 | S=C(NCc1ccc2c(c1)OCO2)N1CCN(c2ncnc3c2oc2ccccc23)CC1 [Amuvatinib] (top concentration 10000 nM) | 1.56 | 4.26 | 5.06
24 | NC(=O)c1cccc2cn(-c3ccc(C4CCCNC4)cc3)nc12 (stereo not given) [Niraparib] (top concentration 10000 nM) | 4.68 | 5.98 | -2.12
25 | CN(C)Cc1ccc(S(=O)(=O)n2ccc(/C=C/C(=O)NO)c2)cc1 [Resminostat] (top concentration 10000 nM) | 3.74 | 7.94 | 2.64
26 | COc1ccc(C[C@H](NC(=O)[C@H](C)NC(=O)CN2CCOCC2)C(=O)N[C@@H](Cc2ccccc2)C(=O)[C@@]2(C)CO2)cc1 [ONX-0914] (top concentration 10000 nM) | 3.1 | -1.8 | 6.5
27 | Cc1ccc(C(=O)Nc2ccc(CN3CCN(C)CC3)c(C(F)(F)F)c2)cc1C#Cc1cnc2cccnn12 [Ponatinib] (top concentration 1000 nM) | 1.82 | 9.02 | 6.62
28 | Cc1nn(C)c(COc2ccc(N3CCN(S(=O)(=O)N(C)C)CC3)cc2)c1-c1cccc2c(CCCOc3cccc4ccccc34)c(C(=O)O)n(CCN3CCOCC3)c12 (top concentration 50000 nM) | 9.06 | 4.46 | 3.16
29 | Cc1c(-c2ccc(N3CCc4cccc(C(=O)Nc5nc6ccccc6s5)c4C3)nc2C(=O)O)cnn1CC12CC3CC(CC(C3)C1)C2 (top concentration 1000 nM) | 18.6 | -2.26 | 12.5
30 | COc1cc2ncnc(Oc3cccc(NC(=O)Nc4cc(C(C)(C)C(F)(F)F)on4)c3)c2cc1OC (top concentration 10000 nM) | 0.1 | 3.2 | 1.2
